Consider 30 compounds from patent publication US11111251B2, “Positive allosteric modulators of the muscarinic acetylcholine receptor M1” (Vanderbilt University, priority 2016, dated 2021).

The structures appear in SMILES notation. pEC50: −log10 of the molar value. Like-named read-outs stand apart in the source and are kept apart here. Bounds are passed on as bounds.

In this experiment the target is T1, human mAChR M1 (Homo sapiens, UniProt P11229).
T1 sequence (P11229 1-460): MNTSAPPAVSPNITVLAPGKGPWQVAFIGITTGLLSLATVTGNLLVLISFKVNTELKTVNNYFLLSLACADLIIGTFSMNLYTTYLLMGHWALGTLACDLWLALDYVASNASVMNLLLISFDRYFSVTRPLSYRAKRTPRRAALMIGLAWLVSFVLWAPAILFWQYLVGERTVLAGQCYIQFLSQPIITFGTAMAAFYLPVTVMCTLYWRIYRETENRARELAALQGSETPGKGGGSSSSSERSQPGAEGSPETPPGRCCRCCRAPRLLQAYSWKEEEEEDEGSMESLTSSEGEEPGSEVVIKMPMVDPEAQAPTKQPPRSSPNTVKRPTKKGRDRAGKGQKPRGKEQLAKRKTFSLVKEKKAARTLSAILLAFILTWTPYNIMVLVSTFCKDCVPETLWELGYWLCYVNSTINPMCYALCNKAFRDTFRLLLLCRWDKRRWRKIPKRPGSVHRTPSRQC
Briefly: mAChR M1 cell-based functional assay: calcium mobilization, positive allosteric modulator mode (increase in EC20 acetylcholine response). As to conditions: for Emax: read-out: Human M1 Emax (%). In short, it runs like this: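 Calcium-flux assay in CHO-K1 cells stably expressing human M1, loaded with Fluo-4 AM (50 min, 37 °C) and read at 1 Hz. Compound (11-point, 1:3 series) was added at 4 s, EC20 acetylcholine at 144 s and EC80 at 230 s. PAM activity is the concentration-dependent rise in the EC20 response, fitted with a four-parameter logistic.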

Where [1] appears, read: Table 1, mAChR M1 cell-based functional assay, PAM mode, species not given, read-out: EC50.
The mark [2] stands for this setting: Table 2, human M1, read-out: Human M1 EC50.

Turning to `Cc1ccc(Oc2cc(C(=O)N[C@@H]3CC[C@H]3O)nc3ccsc23)cn1` [Compound 16], under setting [1], the pEC50 was < 5.00.

As for `COCCNC(=O)c1cc(Cc2ccc(-n3cccn3)cc2)c2sccc2n1` [Compound 429, N-(2-methoxyethyl)-7-[(4-pyrazol-1-ylphenyl)methyl]thieno[3,2-b]pyridine-5-carboxamide], the pEC50 under setting [2] was 6.22. Further, under “Table 2, human M1”, the Emax is 72.7%.

For `O=C(N[C@H]1CC[C@@H]1O)c1cc(Cc2ccc(C(F)(F)F)nc2)c2sccc2n1` [Compound 87, N-[(1S,2S)-2-hydroxycyclobutyl]-7-[[6-(trifluoromethyl)-3-pyridyl]methyl]thieno[3,2-b]pyridine-5-carboxamide], the pEC50 under setting [2] is 5.50. The Emax (Table 2, human M1) came out at 84.9%.

Turning to `Cc1nc(-c2ccc(Cc3cc(C(=O)N[C@@H]4CCCOC4)nc4ccsc34)cc2)cs1` [Compound 188, 7-[[4-(2-methylthiazol-4-yl)phenyl]methyl]-N-[(3R)-tetrahydropyran-3-yl]thieno[3,2-b]pyridine-5-carboxamide], under setting [2], the pEC50 is 5.75. Besides, for the setting “Table 2, human M1”, the Emax came out at 83.2%.

With `Cc1ccc(Oc2cc(C(=O)NC3CCOCC3)nc3ccsc23)cn1` [Compound 20, 7-[(6-methyl-3-pyridyl)oxy]-N-tetrahydropyran-4-yl-thieno[3,2-b]pyridine-5-carboxamide], the pEC50 under setting [1] was < 5.00.

As to `Cn1cc(-c2ccc(Oc3cc(C(=O)N[C@H]4CCOC[C@@H]4O)nc4ccsc34)c(F)c2)cn1` [Compound 7], the pEC50 under setting [1] was 5.49.

In the case of `Cn1ccc2nc(C(=O)NC3CCOC(C)(C)C3)cc(Cc3ccc(-c4nccs4)cc3)c21` (centres unmarked) [Compound 484, N-(2,2-dimethyltetrahydropyran-4-yl)-1-methyl-7-[(4-thiazol-2-ylphenyl)methyl]pyrrolo[3,2-b]pyridine-5-carboxamide], the Emax came to 47.2%. For the same compound, under setting [2], the negative-log EC50 (pEC50) is 6.15.

Regarding `Cc1ccc(Oc2cc(C(=O)NCC(O)C(F)(F)F)nc3ccsc23)cn1` (centres unmarked) [Compound 31, 7-[(6-methyl-3-pyridyl)oxy]-N-(3,3,3-trifluoro-2-hydroxy-propyl)thieno[3,2-b]pyridine-5-carboxamide], under setting [1], the pEC50 is < 5.00.

As for `O=C(NC1CCOCC1)c1cc(Cc2ccc(C(F)(F)F)nc2)c2sccc2n1` [Compound 89, N-tetrahydropyran-4-yl-7-[[6-(trifluoromethyl)-3-pyridyl]methyl]thieno[3,2-b]pyridine-5-carboxamide], the pEC50 under setting [2] was 5.76. Also, where the note is “Table 2, human M1”, the Emax was determined as 71.8%.

On to `Cc1csc2c(Cc3ccc(-n4cccn4)cc3)cc(C(=O)N[C@H]3CC[C@@H]3O)nc12` [Compound 113, N-[(1S,2S)-2-hydroxycyclobutyl]-3-methyl-7-[(4-pyrazol-1-ylphenyl)methyl]thieno[3,2-b]pyridine-5-carboxamide], for which the pEC50 under setting [2] is 6.01. In addition, where the note is “Table 2, human M1”, the Emax came to 83.8%.

Regarding `Cc1ncc(Cc2cc(C(=O)N[C@@H]3CCC[C@H]3O)nc3ccsc23)cn1` [Compound 125], under setting [2], the pEC50 was < 5.00. In addition, the Emax (Table 2, human M1) is 59.1%.

On to `Cn1ccc(-c2ccc(Cc3cc(C(=O)N[C@@H]4COCC[C@H]4O)nc4ccsc34)cn2)n1` [Compound 410], for which the pEC50 under setting [2] was 7.25. Further, under “Table 2, human M1”, the Emax came out at 63.4%.

As for `Cc1ccc(Cc2cc(C(=O)N[C@@H]3CCOC3)nc3ccsc23)cn1` [Compound 262], the pEC50 under setting [2] is < 5.00. For the same compound, the Emax (Table 2, human M1) is 24.4%.

Consider `O=C(N[C@H]1CCCC[C@@H]1O)c1cc(Cc2ccc(-c3cscn3)cc2)c2sccc2n1` [Compound 217, N-[(1S,2S)-2-hydroxycyclohexyl]-7-[(4-thiazol-4-ylphenyl)methyl]thieno[3,2-b]pyridine-5-carboxamide], for which the pEC50 under setting [2] was 7.34. In addition, the Emax (Table 2, human M1) came out at 74.8%.

For `Cn1cc(-c2ccc(Cc3cc(C(=O)N[C@H]4COCC[C@@H]4O)nc4ccsc34)cn2)cn1` [Compound 62, N-[(3S,4S)-4-hydroxytetrahydropyran-3-yl]-7-[[6-(1-methylpyrazol-4-yl)-3-pyridyl]methyl]thieno[3,2-b]pyridine-5-carboxamide], the pEC50 under setting [2] is < 5.00. Further, for the setting “Table 2, human M1”, the Emax worked out at 41.2%.

For the compound `Cc1nc(-c2ccc(Cc3cc(C(=O)NC4COC4)nc4ccsc34)cc2)co1` [Compound 147, 7-[[4-(2-methyloxazol-4-yl)phenyl]methyl]-N-(oxetan-3-yl)thieno[3,2-b]pyridine-5-carboxamide], the pEC50 under setting [2] is < 5.00. For the same compound, the Emax (Table 2, human M1) turned out to be 34%.

As for `Cc1nc(-c2ccc(Cc3cc(C(=O)NC4CCCN(C)C4)nc4ccsc34)cc2)co1` (centres unmarked) [Compound 163, 7-[[4-(2-methyloxazol-4-yl)phenyl]methyl]-N-(1-methyl-3-piperidyl)thieno[3,2-b]pyridine-5-carboxamide], under setting [2], the pEC50 is 5.60. For the same compound, the Emax (Table 2, human M1) came to 75.4%.

For `O=C(N[C@H]1CC[C@@H]1O)c1cc(Cc2ccc(-c3nccs3)cc2)c2sccc2n1` [Compound 297, N-[(1S,2S)-2-hydroxycyclobutyl]-7-[(4-thiazol-2-ylphenyl)methyl]thieno[3,2-b]pyridine-5-carboxamide], the pEC50 under setting [2] was 6.65. In addition, the Emax (Table 2, human M1) is 76.4%.

Regarding `Cn1cc(-c2cc(F)c(Cc3cc(C(=O)N[C@H]4CCCC[C@@H]4O)nc4ccsc34)c(F)c2)cn1` [Compound 57, 7-[[2,6-difluoro-4-(1-methylpyrazol-4-yl)phenyl]methyl]-N-[(1S,2S)-2-hydroxycyclohexyl]thieno[3,2-b]pyridine-5-carboxamide], under setting [2], the pEC50 was 5.58. Also, the Emax (Table 2, human M1) came out at 80.1%.

With `O=C(N[C@@H]1CCCCC[C@H]1O)c1cc(Cc2ccc(C(F)(F)F)nc2)c2sccc2n1` [Compound 94], the pEC50 under setting [2] was 5.90. Where the note is “Table 2, human M1”, the Emax is 84.6%.

On to `Cn1ccc2nc(C(=O)N[C@H]3CCCC[C@@H]3O)cc(Cc3ccc(-n4cccn4)cc3)c21` [Compound 454, N-[(1S,2S)-2-hydroxycyclohexyl]-1-methyl-7-[(4-pyrazol-1-ylphenyl)methyl]pyrrolo[3,2-b]pyridine-5-carboxamide], for which, under setting [2], the pEC50 was 7.86. Moreover, where the note is “Table 2, human M1”, the Emax was determined as 69.3%.

In the case of `CC1(C)CC(NC(=O)c2cc(Cc3ccc(-c4cncs4)cc3)c3sccc3n2)CCO1` (centres unmarked) [Compound 388, N-(2,2-dimethyltetrahydropyran-4-yl)-7-[(4-thiazol-5-ylphenyl)methyl]thieno[3,2-b]pyridine-5-carboxamide], under setting [2], the pEC50 was 6.07. Besides, the Emax (Table 2, human M1) was determined as 67.8%.

Turning to `Cn1ccc(-c2ccc(Cc3cc(C(=O)NCC4CCO4)nc4ccsc34)cn2)n1` (centres unmarked) [Compound 355, 7-[[6-(1-methylpyrazol-3-yl)-3-pyridyl]methyl]-N-(oxetan-2-ylmethyl)thieno[3,2-b]pyridine-5-carboxamide], the pEC50 under setting [2] is 6.45. Besides, where the note is “Table 2, human M1”, the maximal response (Emax) stood at 86.6%.

As for `Cn1ccc2nc(C(=O)N[C@H]3CCCC[C@@H]3O)cc(Cc3ccc(-c4cscn4)cc3)c21` [Compound 457, N-[(1S,2S)-2-hydroxycyclohexyl]-1-methyl-7-[(4-thiazol-4-ylphenyl)methyl]pyrrolo[3,2-b]pyridine-5-carboxamide], the pEC50 under setting [2] is 7.46. Further, the Emax (Table 2, human M1) worked out at 64.8%.

In the case of `Cn1cc(-c2ccc(Cc3cc(C(=O)N[C@H]4CCCC[C@@H]4O)nc4ccn(C)c34)cn2)cn1` [Compound 469, N-[(1S,2S)-2-hydroxycyclohexyl]-1-methyl-7-[[6-(1-methylpyrazol-4-yl)-3-pyridyl]methyl]pyrrolo[3,2-b]pyridine-5-carboxamide], the pEC50 under setting [2] is 7.53. Moreover, under “Table 2, human M1”, the Emax came to 72.3%.

As to `Cn1cc(-c2ccc(Cc3cc(C(=O)N[C@H]4CCC[C@@H]4O)nc4ccsc34)cn2)cn1` [Compound 223, N-[(1S,2S)-2-hydroxycyclopentyl]-7-[[6-(1-methylpyrazol-4-yl)-3-pyridyl]methyl]thieno[3,2-b]pyridine-5-carboxamide], the pEC50 under setting [2] is 7.53. Further, for the setting “Table 2, human M1”, the Emax was found to be 79.9%.

For the compound `Cn1ccc2nc(C(=O)N[C@H]3CCC[C@@H]3O)cc(Cc3ccc(-c4cscn4)cc3)c21` [Compound 458, N-[(1S,2S)-2-hydroxycyclopentyl]-1-methyl-7-[(4-thiazol-4-ylphenyl)methyl]pyrrolo[3,2-b]pyridine-5-carboxamide], the pEC50 under setting [2] is 6.89. For the same compound, under “Table 2, human M1”, the Emax came out at 73.4%.

With `Cn1ccc2nc(C(=O)N[C@H]3CCOC3)cc(Cc3ccc(-c4cscn4)cc3)c21` [Compound 464, 1-methyl-N-[(3S)-tetrahydrofuran-3-yl]-7-[(4-thiazol-4-ylphenyl)methyl]pyrrolo[3,2-b]pyridine-5-carboxamide], the negative-log EC50 (pEC50) under setting [2] was 5.73. For the same compound, for the setting “Table 2, human M1”, the Emax was found to be 71.2%.

Take `Cc1ccc(Cc2cc(C(=O)NC3CCOCC3)nc3c(C)csc23)cn1` [Compound 102, 3-methyl-7-[(6-methyl-3-pyridyl)methyl]-N-tetrahydropyran-4-yl-thieno[3,2-b]pyridine-5-carboxamide]: the pEC50 under setting [2] was 5.57. In addition, for the setting “Table 2, human M1”, the Emax is 82.5%.

`Cn1cc(-c2ccc(Cc3cc(C(=O)N[C@H]4CCCOC4)nc4ccsc34)cn2)cn1` [Compound 347, 7-[[6-(1-methylpyrazol-4-yl)-3-pyridyl]methyl]-N-[(3S)-tetrahydropyran-3-yl]thieno[3,2-b]pyridine-5-carboxamide]: the negative-log EC50 (pEC50) under setting [2] is 6.30. In addition, the Emax (Table 2, human M1) stood at 82.2%.

Usually pEC50 stands for −log10 of the EC50, conventionally taken in molar units. As a reminder, the Emax is the greatest response seen or fitted, relative to the assay's reference.
